The numbers were not newly measured in US20110195988A1, “Pharmaceutical Composition” (Special Products Limited, priority 2010, published 2011), which cites them from elsewhere.

Molecules are shown by their SMILES.

The conditions of this series: oral formulations of morphine.

On to `CN1CC[C@]23c4c5ccc(O)c4O[C@H]2[C@@H](O)C=C[C@H]3[C@H]1C5` [morphine], for which the “time after administration at which the analgesic effect is observed” value is reported as “around 30 minutes”.
